Assay results reported in patent publication US4921850A, “3-propenylcephem derivative” (Eisai Co., Ltd., priority 1986, dated 1990).
In brackets after ≈: the same amount, converted by molar mass. Where two headings read alike, the source gives them in different places.

Assays:
Assay in all cases: Anti-bacterial activity (MIC), agar dilution
Assay type in all cases: cell-based
Kleb. pneumoniae EK-6 = settings: Kleb. pneumoniae EK-6, agar dilution, about 10^6 CFU/ml, 18 hours, 37° C.
How it was run: (§1)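 MIC values (μg/ml) come from agar dilution: strains grown overnight in Mueller-Hinton broth, diluted to roughly 10^6 CFU/ml, spotted on Mueller-Hinton agar containing twofold serial antibiotic dilutions, and read after 18 hours at 37° C.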

Staph. aureus 209-P = settings: Staph. aureus 209-P, agar dilution, about 10^6 CFU/ml, 18 hours, 37° C.
How it was run: as §1

Ser. marcescens ES-75 = settings: Ser. marcescens ES-75, agar dilution, about 10^6 CFU/ml, 18 hours, 37° C.
How it was run: as §1

[1] = tested on: Morganella morganii EP-14; settings: about 10^6 CFU/ml, 37° C.
How it was run: as §1

Pseud. aeruginosa EP-01 = settings: Pseud. aeruginosa EP-01, agar dilution, about 10^6 CFU/ml, 18 hours, 37° C.
How it was run: as §1

Escher. coli NIHJ = settings: Escher. coli NIHJ, agar dilution, about 10^6 CFU/ml, 18 hours, 37° C.
How it was run: as §1

[2] = Klebsiella pneumoniae, EK6, 18 h, read-out: MIC
[3] = Staphylococcus aureus, 209P, 18 h, read-out: MIC
[4] = Serratia marcescens, ES75, 18 h, read-out: MIC
[5] = Morganella morganii, EP14, 18 h, read-out: MIC
[6] = Pseudomonas aeruginosa, EP01, 18 h, read-out: MIC
[7] = Escherichia coli, 18 h, read-out: MIC

Structure (SMILES) | MIC (Kleb. pneumoniae EK-6; [2]) [µg/mL] | MIC (Staph. aureus 209-P; [3]) [µg/mL] | MIC (Ser. marcescens ES-75; [4]) [µg/mL] | MIC [1, 5] [µg/mL] | MIC (Pseud. aeruginosa EP-01; [6]) [µg/mL] | MIC (Escher. coli NIHJ; [7]) [µg/mL] | MIC (Kleb. pneumoniae EK-6) [µg/mL] | MIC (Staph. aureus 209-P) [µg/mL] | MIC (Ser. marcescens ES-75) [µg/mL] | MIC ([1]; 18 hours) [µg/mL] | MIC (Pseud. aeruginosa EP-01) [µg/mL] | MIC (Escher. coli NIHJ) [µg/mL]
C[N+](C)(C/C=C/C1=C(C(=O)[O-])N2C(=O)[C@@H](NC(=O)/C(=N\OCF)c3nsc(N)n3)[C@H]2SC1)CC(=O)NCC(N)=O [Example 73] | 0.05 (≈ 0.0834 µM) | 0.4 (≈ 0.667 µM) | 0.05 (≈ 0.0834 µM) | 0.1 (≈ 0.167 µM) | 1.56 (≈ 2.6 µM) | 0.05 (≈ 0.0834 µM) | – | – | – | – | – | –
C[N+](C)(C/C=C/C1=C(C(=O)[O-])N2C(=O)[C@@H](NC(=O)/C(=N\OCF)c3nsc(N)n3)[C@H]2SC1)CC(=O)N(CCO)CCO [Example 74] | 0.05 (≈ 0.0793 µM) | 0.8 (≈ 1.27 µM) | 0.4 (≈ 0.634 µM) | 0.1 (≈ 0.159 µM) | 1.56 (≈ 2.47 µM) | 0.1 (≈ 0.159 µM) | – | – | – | – | – | –
C[N+](C)(C/C=C/C1=C(C(=O)[O-])N2C(=O)[C@@H](NC(=O)/C(=N\OCF)c3nsc(N)n3)[C@H]2SC1)CC(=O)NCCO [Example 75] | 0.05 (≈ 0.0852 µM) | 0.4 (≈ 0.682 µM) | 0.2 (≈ 0.341 µM) | 0.05 (≈ 0.0852 µM) | 1.56 (≈ 2.66 µM) | 0.05 (≈ 0.0852 µM) | – | – | – | – | – | –
CN(C)CCC[N+](C)(C)C/C=C/C1=C(C(=O)[O-])N2C(=O)[C@@H](NC(=O)/C(=N\OCF)c3nsc(N)n3)[C@H]2SC1 [Example 77] | 0.2 (≈ 0.35 µM) | 0.4 (≈ 0.701 µM) | 0.2 (≈ 0.35 µM) | 0.4 (≈ 0.701 µM) | 3.13 (≈ 5.48 µM) | 0.2 (≈ 0.35 µM) | – | – | – | – | – | –
CN(C)CC(O)C[N+](C)(C)C/C=C/C1=C(C(=O)[O-])N2C(=O)[C@@H](NC(=O)/C(=N\OCF)c3nsc(N)n3)[C@H]2SC1 (stereo partly drawn) [Example 78] | 0.2 (≈ 0.341 µM) | 0.4 (≈ 0.682 µM) | 0.2 (≈ 0.341 µM) | 0.2 (≈ 0.341 µM) | 3.13 (≈ 5.34 µM) | 0.2 (≈ 0.341 µM) | – | – | – | – | – | –
Cc1c(CCO)sc[n+]1C/C=C/C1=C(C(=O)[O-])N2C(=O)[C@@H](NC(=O)/C(=N\OCF)c3nsc(N)n3)[C@H]2SC1 [Example 81] | ≤ 0.025 | 0.2 (≈ 0.343 µM) | ≤ 0.025 | ≤ 0.025 | 1.56 (≈ 2.67 µM) | ≤ 0.025 | – | – | – | – | – | –
NC(=O)Cc1cccc[n+]1C/C=C/C1=C(C(=O)[O-])N2C(=O)[C@@H](NC(=O)/C(=N\OCF)c3nsc(N)n3)[C@H]2SC1 [Example 82] | ≤ 0.025 | 0.4 (≈ 0.694 µM) | 0.05 (≈ 0.0867 µM) | ≤ 0.025 | 1.56 (≈ 2.71 µM) | ≤ 0.025 | – | – | – | – | – | –
Nc1nc(/C(=N/OCF)C(=O)N[C@@H]2C(=O)N3C(C(=O)[O-])=C(/C=C/C[n+]4ccc(C(=O)N(CCO)CCO)cc4)CS[C@H]23)ns1 [Example 83] | ≤ 0.025 | 0.8 (≈ 1.23 µM) | 0.1 (≈ 0.154 µM) | ≤ 0.025 | 3.13 (≈ 4.81 µM) | 0.05 (≈ 0.0768 µM) | – | – | – | – | – | –
Nc1nc(/C(=N/OCF)C(=O)N[C@@H]2C(=O)N3C(C(=O)[O-])=C(/C=C/C[n+]4ccc(C(=O)NCCO)cc4)CS[C@H]23)ns1 [Example 84] | ≤ 0.025 | 0.4 (≈ 0.659 µM) | 0.1 (≈ 0.165 µM) | 0.05 (≈ 0.0824 µM) | 1.56 (≈ 2.57 µM) | 0.05 (≈ 0.0824 µM) | – | – | – | – | – | –
NC(=O)Cc1ccc[n+](C/C=C/C2=C(C(=O)[O-])N3C(=O)[C@@H](NC(=O)/C(=N\OCF)c4nsc(N)n4)[C@H]3SC2)c1 [Example 85] | ≤ 0.025 | 0.2 (≈ 0.347 µM) | ≤ 0.025 | ≤ 0.025 | 1.56 (≈ 2.71 µM) | ≤ 0.025 | – | – | – | – | – | –
C[N+](C)(C/C=C/C1=C(C(=O)[O-])N2C(=O)[C@@H](NC(=O)/C(=N\OCF)c3nsc(N)n3)[C@H]2SC1)CC(O)CO (stereo partly drawn) [Example 88] | ≤ 0.025 | 0.2 (≈ 0.357 µM) | ≤ 0.025 | ≤ 0.025 | 0.8 (≈ 1.43 µM) | ≤ 0.025 | – | – | – | – | – | –
C[N+]1(CC=CC2=C(C(=O)[O-])N3C(=O)C(NC(=O)C(=NOCF)c4nsc(N)n4)C3SC2)CC(O)CC1CO (stereo not drawn) [Example 89-1] | ≤ 0.025 | 0.2 (≈ 0.35 µM) | ≤ 0.025 | ≤ 0.025 | 0.8 (≈ 1.4 µM) | ≤ 0.025 | – | – | – | – | – | –
C[N+]1(CC=CC2=C(C(=O)[O-])N3C(=O)C(NC(=O)C(=NOCF)c4nsc(N)n4)C3SC2)CC(O)CC1CO (stereo not drawn) [Example 89-2] | – | – | – | – | – | – | ≤ 0.025 | 0.2 (≈ 0.35 µM) | ≤ 0.025 | ≤ 0.025 | 0.8 (≈ 1.4 µM) | ≤ 0.025
C[N+]1(C/C=C/C2=C(C(=O)[O-])N3C(=O)[C@@H](NC(=O)/C(=N\OCF)c4nsc(N)n4)[C@H]3SC2)CCC(O)CC1 (stereo partly drawn) [Example 90] | ≤ 0.025 | 0.2 (≈ 0.36 µM) | ≤ 0.025 | 0.05 (≈ 0.09 µM) | 0.8 (≈ 1.44 µM) | 0.05 (≈ 0.09 µM) | – | – | – | – | – | –
Nc1nc(/C(=N/OCF)C(=O)N[C@@H]2C(=O)N3C(C(=O)[O-])=C(/C=C/C[N+]4(CCO)CCC(O)CC4)CS[C@H]23)ns1 (stereo partly drawn) [Example 91] | ≤ 0.025 | 0.2 (≈ 0.342 µM) | ≤ 0.025 | ≤ 0.025 | 1.56 (≈ 2.66 µM) | 0.05 (≈ 0.0854 µM) | – | – | – | – | – | –
C[N+](C)(C/C=C/C1=C(C(=O)[O-])N2C(=O)[C@@H](NC(=O)/C(=N\OCF)c3nsc(N)n3)[C@H]2SC1)CC(=O)NCO [Example 92] | ≤ 0.025 | 0.2 (≈ 0.349 µM) | ≤ 0.025 | ≤ 0.025 | 0.8 (≈ 1.4 µM) | ≤ 0.025 | – | – | – | – | – | –
C[N+](C)(C/C=C/C1=C(C(=O)[O-])N2C(=O)[C@@H](NC(=O)/C(=N\OCF)c3nsc(N)n3)[C@H]2SC1)CCC(N)=O [Example 93] | ≤ 0.025 | 0.2 (≈ 0.359 µM) | ≤ 0.025 | ≤ 0.025 | 0.8 (≈ 1.44 µM) | ≤ 0.025 | – | – | – | – | – | –
C[N+]1(C/C=C/C2=C(C(=O)[O-])N3C(=O)[C@@H](NC(=O)/C(=N\OCF)c4nsc(N)n4)[C@H]3SC2)CCCN(C(N)=O)CC1 (stereo partly drawn) [Example 94] | ≤ 0.025 | 0.2 (≈ 0.335 µM) | ≤ 0.025 | ≤ 0.025 | 0.8 (≈ 1.34 µM) | ≤ 0.025 | – | – | – | – | – | –
C[N+](C)(C/C=C/C1=C(C(=O)[O-])N2C(=O)[C@@H](NC(=O)/C(=N\OCF)c3nsc(N)n3)[C@H]2SC1)C(CO)CO [Example 95] | ≤ 0.025 | 0.2 (≈ 0.357 µM) | ≤ 0.025 | ≤ 0.025 | 0.8 (≈ 1.43 µM) | 0.05 (≈ 0.0893 µM) | – | – | – | – | – | –
CNC(=O)CC[N+](C)(C)C/C=C/C1=C(C(=O)[O-])N2C(=O)[C@@H](NC(=O)/C(=N\OCF)c3nsc(N)n3)[C@H]2SC1 [Example 97] | ≤ 0.025 | 0.2 (≈ 0.35 µM) | ≤ 0.025 | ≤ 0.025 | 0.8 (≈ 1.4 µM) | ≤ 0.025 | – | – | – | – | – | –
CN(C)C(=O)CC[N+](C)(C)C/C=C/C1=C(C(=O)[O-])N2C(=O)[C@@H](NC(=O)/C(=N\OCF)c3nsc(N)n3)[C@H]2SC1 [Example 98] | 0.05 (≈ 0.0855 µM) | 0.4 (≈ 0.684 µM) | 0.05 (≈ 0.0855 µM) | ≤ 0.025 | 3.13 (≈ 5.35 µM) | 0.05 (≈ 0.0855 µM) | – | – | – | – | – | –
COCC[N+](C)(C)C/C=C/C1=C(C(=O)[O-])N2C(=O)[C@@H](NC(=O)/C(=N\OCF)c3nsc(N)n3)[C@H]2SC1 [Example 99] | ≤ 0.025 | 0.2 (≈ 0.368 µM) | ≤ 0.025 | ≤ 0.025 | 1.56 (≈ 2.87 µM) | ≤ 0.025 | – | – | – | – | – | –
NC(=O)N1CCC[N+](C/C=C/C2=C(C(=O)[O-])N3C(=O)[C@@H](NC(=O)/C(=N\OCF)c4nsc(N)n4)[C@H]3SC2)(CCO)CC1 (stereo partly drawn) [Example 101] | ≤ 0.025 | 0.2 (≈ 0.319 µM) | ≤ 0.025 | ≤ 0.025 | 1.56 (≈ 2.49 µM) | 0.05 (≈ 0.0797 µM) | – | – | – | – | – | –
